In US8076061B2, “Method and composition for cancer diagnosis and treatment” (Ascentgene, Inc., priority 2007, dated 2011):

Columns and labels:
[1] = system: PC4-dependent transcription (template pG5HM); experiment: In vitro transcription assay reconstituted with purified general transcription factors; type: biochemical
Description: FIGS. 3A, 3B and 3C show the functional analyses of PC4 mutations in different assays.
In vitro transcription assay was reconstituted with purified general transcription factors, including TFIIA, TFIIB, TFIID, TFIIF, TFIIH and RNA polymerase II, either purified from HeLa cells or from a recombinant source. This system can be activated in a PC4 and activator-dependent manner. In addition to the transcription factors, the system also contained one activator-responsive template, a basic template (activator-independent), and ^32P-CTP. After incubation at 30° C. for 1 hr, the newly synthesized RNAs were extracted and analyzed on a denatured polyacrylamide gel and visualized by autoradiography.

[2] = target: PC4 (Homo sapiens, UniProt P53999); experiment: Interaction of AH peptide with PC4; type: binding; conditions: 15 amino acid peptide
[3] = target: T1, transcription factor TFIIA (Homo sapiens, UniProt P52655+P52657); experiment: Protein array assay (UPA), interaction with TFIIA; type: binding; conditions: FIG. 4C
T1 sequence (P52655 1-376): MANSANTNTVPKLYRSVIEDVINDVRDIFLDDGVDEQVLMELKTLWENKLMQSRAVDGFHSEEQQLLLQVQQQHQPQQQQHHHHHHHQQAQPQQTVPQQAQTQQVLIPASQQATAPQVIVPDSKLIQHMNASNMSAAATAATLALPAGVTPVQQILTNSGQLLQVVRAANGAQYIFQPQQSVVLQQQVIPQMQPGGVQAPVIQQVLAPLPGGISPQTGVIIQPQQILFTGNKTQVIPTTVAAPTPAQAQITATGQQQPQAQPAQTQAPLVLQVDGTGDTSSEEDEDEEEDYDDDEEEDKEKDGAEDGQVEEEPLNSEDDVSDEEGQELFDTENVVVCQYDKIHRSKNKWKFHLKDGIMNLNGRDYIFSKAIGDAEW
T1 sequence (P52657 1-109): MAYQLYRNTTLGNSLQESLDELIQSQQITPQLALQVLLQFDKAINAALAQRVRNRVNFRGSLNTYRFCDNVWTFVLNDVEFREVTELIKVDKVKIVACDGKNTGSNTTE
Protocol: (§1) The protein array assay is based on the “Universal Protein Array” method, also called UPA [Ge, H. (2000) UPA, a universal protein array system for quantitative detection of protein-protein, protein-DNA, protein-RNA and protein-ligand interactions. Nucleic Acids Res. 28, e3]. Purified proteins were validated, normalized and arrayed on a nitrocellulose sheet. Each spot was arrayed in 1 mm diameter containing 10-100 ng of protein depending on size. Targeted proteins that interacted with the PC4 proteins on the array were detected by specific antibodies such as antibodies against transcription factor TFIIA, Gal4, or Sp1. For protein-DNA interaction, probe DNA was labeled with ^32P-dCTP and the bound DNA was monitored by autoradiography.

[4] = system: ssDNA; experiment: Protein array assay (UPA), protein-DNA interaction; type: binding; conditions: FIG. 4F
Protocol: as §1

[5] = system: 64 bp dsDNA probe from the adeno major late promoter region; experiment: Electrophoresis mobility shift assay (EMSA), DNA binding activity of PC4 proteins; conditions: purified recombinant PC4 mutant vs wild type, FIG. 3B
Protocol: EMSA was used to determine the ds-DNA binding activity of PC4 protein and was performed in a 20 ul of reaction containing […] of purified PC4 protein and ^32P-labeled 64 bp dsDNA probe from the adeno major late promoter region. After incubated at 4° C. for 1 hr, the reaction mixture was analyzed on an 8% polyacrylamide gel. The mobilized PC4-dsDNA complex was visualized using autoradiography.

[6] = system: transcription factor Sp1 (Gal4-Sp1 fusion protein); experiment: Protein array assay (UPA), interaction with Sp1; type: binding; conditions: FIG. 4E
Protocol: as §1

Substance | transcription activation, PC4-dependent ([1]; AH fused with a Gal4 DNA binding domain) | interaction with PC4 (mimics an activation domain) [2] | interaction of PC4 with TFIIA [3] | ssDNA binding activity of PC4 [4] | PC4's DNA binding activity [5] | interaction of PC4 with Sp1 [6] | PC4 transcription activity ([1]; purified recombinant PC4 mutant vs wild type, FIG. 3C)
ELQEL′QELQALLQQQ (ELQELQELQALLQQQ; AH15) | dramatic transcription activation | interacting strongly | – | – | – | – | –
F77P: recombinant human PC4 protein with single amino acid change F77P | – | – | enhances | critical for the ssDNA binding activity | abolishes | enhances | abolishes
